One data set relates to C. elegans pharynx. As to the kind of experiment: Pharynx size analysis from bright field images in vivoChip. In kind it is in vivo. Conditions: D1 adults, 1.6 μM, DMSO (0.25%), treated from L1 stage. An excerpt:
FIGS. 25A-25C depict identifying C. elegans organs and organ structures using high-resolution, bright field, and fluorescence images using the vivoChip platform. […] The schematic represents different organs that could be identified and analyzed using image processing or automated machine learning algorithms.
Identifying internal organs and organ structures of C. elegans using bright field and fluorescence images: Overall morphology of changes in different tissues within a C. elegans body. Due to the dynamic nature of the tissue architectures, it is expected to change over the animal's age. This approach was used to track tissue architecture during early adult stage C. elegans quantitatively (FIG. 25A). As an example, the study analyzed the pharynx within the C. elegans immobilized inside the vivoChip. […] This well-studied organ has been used to screen several therapeutic drugs and to characterize the amount of food intake readouts. […]
C. elegans pharynxes present in the best focal plane from individual channels were manually segmented. […] Once the C. elegans body is detected, specific organs can be characterized using the fluorescence reporter (transgenic strains) or fluorescent dyes (feeding or soaking with dye). For example, C. elegans were fed with FITC-dextran overnight to visualize the green signal using fluorescence imaging of device-immobilized animals. […]

A further data set concerns CL2166 strain. Conditions: CL2166, 5.66 μl of 3% H2O2 in 500 μl culture at 68 hours, 4 hours exposure.
The next data set deals with wild-type N2 worms. As to the kind of experiment: Pilot DART imaging of N2 worms treated with FUdR in a small-scale vivoChip. In kind it is in vivo, C. elegans. Conditions: for EC50: Caenorhabditis elegans, N2 L1 larvae, 0-10,000 μM, 72 hrs at 20° C., D1 adults. How it is done:
(§1) Strains and maintenance: The study used the N2 wild type (The Caenorhabditis Natural Diversity Resource, CaeNDR) for all experiments except for the initial vivoChip-2× pilot study, where the study used N2 wild types from the Caenorhabditis Genetics Center (CGC). C. elegans were maintained using the standard methods on nematode growth media (NGM) plates seeded with HB101 Escherichia coli bacteria and maintained at 20° C.. Frozen stocks of strains were also maintained at −80° C. and thawed each year to generate a new set of Dauer plates. Sealed Dauer plates for each strain were stored at 16° C. and used to start a fresh maintenance culture every 3 months by chunking to avoid genetic drift. Worms were cultured for >5 generations before using them for assays in a temperature and humidity-controlled environment.
(§2) Worm synchronization and large-scale culture: To prepare large numbers of synchronized L1 stage larvae, P0 larval 4 (L4) worms were transferred to NGM plates and grown for 96 hrs till the F1 generation reached maturity, removing the P0 adults after 48 hrs. D1 animals were treated with an alkaline sodium hypochlorite solution with periods of slow and high-speed shaking on a speed-controllable vortex to fragment their bodies and release the embryos before the bleaching solution was neutralized with 5 washes of M9. The eggs were allowed to develop and hatch in the M9 buffer in a rotating glass conical tube for 24 hrs. Hatched synchronized L1s were filtered through a 20 μm cell filter to remove unhatched eggs and debris, counted the number of total larvae, and adjusted the volume to make a final suspension of L1 larvae at a density of ~100 L1s/20 μl.
Chemical treatment in liquid culture: The age-synchronized L1 suspension (~100 larvae in 20 μl volumes) was placed in a standard 24-well plate with 480 μl HB101 (OD600^=3.0) suspension in S media. 2.5 μl of chemicals dissolved in H2O, or 1 μL of the chemicals in DMSO were added to the designated wells, keeping solvent concentration constant across all wells. Vehicle control wells received the same volume of each solvent (H2O or 0.2% DMSO). […]
For the initial testing of this hypothesis, this study explored the response of wild-type N2 worms when treated various doses of 5-Fluoro-2′-deoxyuridine (FUdR), a drug commonly used to prevent the development of live offspring in C. elegans experimental cultures. […] The length of all worms in each concentration were manually measured by taking the distance from the head to the tail of each animal. The study counted the total number of embryos and the number of embryos visibly moving within the eggshells in each worm through the time stacks (FIGS. 1C-1E).

The test system of another data set is C. elegans. Briefly: Nile red (NR) staining of stored body lipids in vivoChip. It is filed as in vivo. Conditions: co-cultured for the entire 72 hours, versus control worms. As for the experimental part: Liquid culture of C. elegans: Worms are synchronized by bleaching a population of gravid C. elegans using the hypochlorite solution. The embryos are then incubated in a glass tube and rotated for 24 hours at 20° C. About 80 larval 1 (L1) worms are plated into a standard 24-well plastic plate with 500 μl S media and HB101 bacteria. The worms are exposed to chemicals or ingredients during the growth in the liquid media for 3 days in a 20° C. incubator.
Imaging of C. elegans using vivoChip: The C. elegans are fed with bacteria and treated with test chemicals for 72 hours in a 20° C. incubator. […] The vivoChip technology allows capture of bright field or fluorescence images from the worms immobilized inside the microfluidic channels.
Nile red (NR) staining to study body lipids: To stain lipid molecules in the C. elegans body, 30 ng/ml and 50 ng/mL were added to the liquid culture at the L1 stage (a total of 72-hour incubation) and L4 stage animals (a total of 24-hour incubation) and maintained the plate at 20° C. […] Bright-field and fluorescence (red filter set) were acquired to capture worm development and the stored lipids in the C. elegans populations.
Analysis of NR signal: The individual channels were analyzed to identify the NR signal, mainly within the worm intestinal […] (FIG. 23A). […]

For a further data set, the system named is Fathead minnow. Conditions: cited from earlier work.
The subject of the next data set is C. elegans N2 wild type. Briefly: vivoChip-24x C. elegans DART assay (72 hr liquid culture from L1, 4D imaging of D1 adults). It is filed as in vivo. How it is done: as §1
Food preparation: HB101 was streaked on a Luria-Bertani (LB) agar plate with streptomycin (antibiotic) and incubated overnight at 37° C. to generate single colonies. One colony was picked and used to inoculate an overnight 5 mL starter culture in LB broth and antibiotic. 200 μl of this starter culture was added to 200 mL LB broth/streptomycin in a 1000 mL baffled flask and incubated for 18 h with 180 rotations per min (rpm) shaking to reach the end of the log growth phase. OD600 was measured using an Implen DiluPhotometer, and the culture was stored at 4° C. Immediately before worm culture, a sufficient volume of the bacterial culture was centrifuged to generate the required volume of OD600^=3.0 food suspension. The LB supernatant was removed and the pellet was resuspended in S media. This density was optimal for growing 80-100 larval 1 (L1) to the day 1 (D1) adult stage in a 500 μl culture volume with food remaining after 72 hrs, but not so much residual food particles as to interfere with imaging or chip operation.
Chemicals: Methylmercury (II) hydroxide (CH3Hg, Alfa Aesar, CAS #1184-57-2) and 5-Fluoro-2′-deoxyuridinc (FUdR, TCI Chemical, CAS #50-91-9) were dissolved in ultrapure water as master stocks at 200× highest treatment concentration. Propiconazole (Sigma Aldrich, CAS #60207-90-1) was dissolved in dimethylsulfoxide (Sigma Aldrich, CAS #67-68-5) as master stocks at 500× highest treatment concentration. The master stocks were transferred into 0.2 ml tubes as single-use aliquots and kept at −80° C. until needed. The 1 μM dose of CH3Hg was prepared by diluting the stock in ultrapure water prior to the treatment. For the dose-response assays, propiconazole was diluted immediately prior to treatment by serial dilution in DMSO to 500× working dilutions as needed, so that the final DMSO concentration in each well would be 0.2%. DMSO was also added to both the solvent control wells and the CH3Hg control wells to 0.2%.
as §2
Chemical treatment in liquid culture: The age-synchronized L1 suspension (~100 larvae in 20 μl volumes) was placed in a standard 24-well plate with 480 μl HB101 (OD600^=3.0) suspension in S media. 2.5 μl of chemicals dissolved in H2O, or 1 μL of the chemicals in DMSO were added to the designated wells, keeping solvent concentration constant across all wells. […]

The test system of a further data set is Daphnia. Conditions: cited from earlier work.

Values joined by “and” are separate entries in the source; they are usually repeats but may differ in a detail not shown here. Equal values may be shown once. Read-outs that look alike come from different tables or passages of the source. Where only a bound is given, the exact number is not on record here.

Method for CL2166 strain: Image analysis of the C. elegans body and fluorescence signal: The images from the vivoChip platform were cropped into individual channels. The study determined the best focal plane for each worm image (bright-field images) from the stack of images. Individual channel image was analyzed using machine-learning algorithms (developed by vivoVerse) to predict the mask for the worm body inside the individual microfluidic channel. Since several organs in the worm body have a 3D architecture, the study created a maximum-intensity projection of multiple z-slice fluorescence images. Using the maximum projection image, the study then calculated the integrated fluorescence signal within the predicted body mask. The study also estimated the background signal from the pixels outside the body mask and within two successive channel regions. The background signal was used to estimate the corrected total C. elegans fluorescence (CTCF)=integrated density−(area of selected C. elegans body×fluorescence of background readings)
The study treated a transgenic strain expressing GFP when exposed to oxidative stress to quantify the stress level in individual worms using high-resolution imaging to quantify sub-lethal changes in the stress levels.
5.66 μl of 3% H2O2 was added to the 500 μl S media culture with worms at 68 hours to induce oxidative stress. […]

Take `CCOP(=S)(OCC)Oc1nc(Cl)c(Cl)cc1Cl` [chlorpyrifos]: in the data set on C. elegans pharynx, the “total pixels of pharynx compared to vehicle control (DMSO)” value was “reduced”.

Regarding `OO` [H2O2, hydrogen peroxide], in the data set with CL2166 strain, the “increase of GFP intensity” value is ~ 60%.

For the compound `O=c1[nH]c(=O)n([C@H]2C[C@H](O)[C@@H](CO)O2)cc1F` [FUdR, 5-Fluoro-2′-deoxyuridine], the 50% effective concentration (EC50) – broadly, the concentration at which the effect is half-maximal – in the data set on wild-type N2 worms (read-out: moving embryo parameter, EC50) amounted to 26 µM; in the data set on wild-type N2 worms (read-out: reduction in body length, EC50) it was 316 µM; with wild-type N2 worms (read-out: reduction in the number of total embryos, EC50), 98 µM. For the same compound, the “concentration causing growth arrest at stages earlier than could be immobilized in the chip” value in the data set with wild-type N2 worms (N2 C. elegans, 0-10000 μM) is at least 500 µM.

For the compound `NCCc1c[nH]c2ccc(O)cc12` [5-HT, serotonin], in the data set with C. elegans, the “amount of lipids in the body visualized using NR staining” value was “significantly lower amount of lipids”.

On to `CCCC1COC(Cn2cncn2)(c2ccc(Cl)cc2Cl)O1` (stereo not drawn) [propiconazole], for which, in the data set with Fathead minnow, the “concentration from which fecundity was affected” value was ≥ 0.5 mg/L and ≥ 1.46 μM. Moreover, the “concentration at which reduced growth rate left worms too small to be immobilized in the microfluidic channels” value with C. elegans N2 wild type (N2, 72 hrs) is at least 333 UM. Moreover, in the data set with C. elegans N2 wild type (N2, L1 to D1, 72 hrs, Hill fit), the “body length EC10” value is 117.5 µM, the “body volume EC10” value came out at 74.9 µM, the “developed (moving+folded) embryos EC10” value stood at 10.9 µM and the “moving embryos EC10” value amounted to 10 µM. In the data set with C. elegans N2 wild type (N2, L1 to D1, 72 hrs, Hill fit), the “total embryos EC10” value was found to be 48.8 µM. Also, in the data set with Daphnia, the “concentration from which embryonic development was affected” value is ≥ 0.5 mg/L and ≥ 1.46 μM.

The values above are taken from US20260266805A1, “METHOD AND COMPOSITIONS FOR ANALYZING TOXICITY IN ORGANISMS” (priority 2023, published 2026).
